Reference: PubChem BioAssay (NCI)
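48-hour exposure; five concentrations; linearly interpolated endpoints. TGI: concentration producing complete growth inhibition.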

Key:
Assay in all cases: NCI tumour cell line growth inhibition, 48 h
[1] = tested on: MDA-MB-435
[2] = tested on: EKVX NSCLC
[3] = tested on: SF-295 CNS
[4] = tested on: MDA-MB-231 breast
[5] = tested on: MALME-3M melanoma
[6] = tested on: K-562 leukemia
[7] = tested on: DU-145 prostate
[8] = tested on: SK-MEL-2 melanoma
[9] = tested on: BT-549 breast
[10] = tested on: UACC-62 melanoma
[11] = tested on: SK-MEL-28 melanoma
[12] = tested on: MCF7 breast
[13] = tested on: SN12C renal
[14] = tested on: HOP-62 NSCLC
[15] = tested on: HCT-116 colon
[16] = tested on: NCI-H460 lung
[17] = tested on: RPMI-8226 leukemia
[18] = tested on: SK-MEL-5 melanoma
[19] = tested on: M14 melanoma
[20] = tested on: SR leukemia
[21] = tested on: KM12 colon
[22] = tested on: OVCAR-5 ovarian
[23] = tested on: OVCAR-8 ovarian
[24] = tested on: SK-OV-3 ovarian
[25] = tested on: UO-31 renal
[26] = tested on: TK-10 renal
[27] = tested on: HCC-2998 colon
[28] = tested on: CCRF-CEM leukemia
[29] = tested on: HOP-92 NSCLC
[30] = tested on: MOLT-4 leukemia
[31] = tested on: CAKI-1 renal
[32] = tested on: SW-620 colon
[33] = tested on: U251 CNS
[34] = tested on: COLO 205 colon
[35] = tested on: SF-268 CNS
[36] = tested on: HS 578T breast
[37] = tested on: MDA-N
[38] = tested on: NCI-H522 lung
[39] = tested on: T-47D breast
[40] = tested on: 786-0 renal
[41] = tested on: SNB-19 CNS
[42] = tested on: OVCAR-3 ovarian
[43] = tested on: LOX IMVI melanoma
[44] = tested on: A498 renal
[45] = tested on: NCI/ADR-RES ovarian
[46] = tested on: IGROV1 ovarian
[47] = tested on: ACHN renal
[48] = tested on: SNB-75 CNS
[49] = tested on: HL-60(TB) leukemia
[50] = tested on: PC-3 prostate
[51] = tested on: RXF 393 renal
[52] = tested on: A549 NSCLC
[53] = tested on: SF-539 CNS
[54] = tested on: NCI-H23 lung
[55] = tested on: UACC-257 melanoma
[56] = tested on: NCI-H226 lung
[57] = tested on: HT29 colon
[58] = tested on: HCT-15 colon
[59] = tested on: OVCAR-4 ovarian

Molecule `O=C1c2ccccc2-c2ccc(N(Cc3ccc(Br)cc3)Cc3ccc(Br)cc3)cc21` has a TGI [1] of over 100 µM, a TGI [2] of over 100 µM and a TGI [3] of over 100 µM. It also gave a TGI [4] of over 100 µM, a TGI [5] of over 100 µM and a TGI [6] of over 100 µM. The TGI [7] was over 100 µM, the TGI [8] was over 100 µM and the TGI [9] was over 100 µM. For the same molecule, the TGI [10] was over 100 µM, the TGI [11] was over 100 µM and the TGI [12] was over 100 µM. It also gave a TGI [13] of over 100 µM, a TGI [14] of over 100 µM and a TGI [15] of over 100 µM. It also gave a TGI [16] of over 100 µM, a TGI [17] of over 100 µM and a TGI [18] of over 100 µM. It also gave a TGI [19] of over 100 µM, a TGI [20] of over 100 µM and a TGI [21] of over 100 µM. It also gave a TGI [22] of over 100 µM, a TGI [23] of over 100 µM and a TGI [24] of over 100 µM. It also gave a TGI [25] of over 100 µM, a TGI [26] of over 100 µM and a TGI [27] of over 100 µM. For the same molecule, the TGI [28] was 46.2 µM, the TGI [29] was over 100 µM and the TGI [30] was over 100 µM. It also gave a TGI [31] of over 100 µM, a TGI [32] of over 100 µM and a TGI [33] of over 100 µM. For the same molecule, the TGI [34] was over 100 µM, the TGI [35] was over 100 µM and the TGI [36] was over 100 µM. For the same molecule, the TGI [37] was over 100 µM, the TGI [38] was over 100 µM and the TGI [39] was over 100 µM. For the same molecule, the TGI [40] was over 100 µM, the TGI [41] was over 100 µM and the TGI [42] was over 100 µM. It also gave a TGI [43] of over 100 µM, a TGI [44] of over 100 µM and a TGI [45] of over 100 µM. For the same molecule, the TGI [46] was over 100 µM, the TGI [47] was over 100 µM and the TGI [48] was over 100 µM. It also gave a TGI [49] of 46.8 µM, a TGI [50] of over 100 µM and a TGI [51] of over 100 µM. For the same molecule, the TGI [52] was over 100 µM, the TGI [53] was over 100 µM and the TGI [54] was over 100 µM. The TGI [55] was over 100 µM, the TGI [56] was over 100 µM and the TGI [57] was over 100 µM. It also gave a TGI [58] of over 100 µM and a TGI [59] of over 100 µM.

`CC(=O)N(CCc1ccccc1)C(C)(C#N)c1ccccc1` (stereo not given) was tested, and the TGI [1] was over 100 µM, the TGI [2] was over 100 µM and the TGI [3] was over 100 µM. For the same molecule, the TGI [4] was over 100 µM, the TGI [5] was over 100 µM and the TGI [6] was over 100 µM. For the same molecule, the TGI [7] was over 100 µM, the TGI [8] was over 100 µM and the TGI [9] was over 100 µM. The TGI [10] was over 100 µM, the TGI [11] was over 100 µM and the TGI [12] was over 100 µM. The TGI [13] was over 100 µM, the TGI [14] was over 100 µM and the TGI [15] was over 100 µM. It also gave a TGI [17] of over 100 µM, a TGI [18] of over 100 µM and a TGI [19] of over 100 µM. It also gave a TGI [20] of over 100 µM, a TGI [21] of over 100 µM and a TGI [22] of over 100 µM. For the same molecule, the TGI [23] was over 100 µM, the TGI [24] was over 100 µM and the TGI [25] was over 100 µM. The TGI [26] was over 100 µM, the TGI [27] was over 100 µM and the TGI [28] was over 100 µM. The TGI [29] was over 100 µM, the TGI [30] was over 100 µM and the TGI [31] was over 100 µM. It also gave a TGI [32] of over 100 µM, a TGI [33] of over 100 µM and a TGI [34] of over 100 µM. The TGI [35] was over 100 µM, the TGI [36] was over 100 µM and the TGI [37] was over 100 µM. The TGI [38] was over 100 µM, the TGI [39] was over 100 µM and the TGI [40] was over 100 µM. The TGI [41] was over 100 µM, the TGI [42] was over 100 µM and the TGI [43] was over 100 µM. It also gave a TGI [44] of over 100 µM, a TGI [45] of over 100 µM and a TGI [46] of over 100 µM. For the same molecule, the TGI [47] was over 100 µM, the TGI [48] was over 100 µM and the TGI [49] was over 100 µM. The TGI [50] was over 100 µM, the TGI [51] was over 100 µM and the TGI [52] was over 100 µM. For the same molecule, the TGI [53] was over 100 µM, the TGI [54] was over 100 µM and the TGI [55] was over 100 µM. For the same molecule, the TGI [56] was over 100 µM, the TGI [57] was over 100 µM and the TGI [58] was over 100 µM. For the same molecule, the TGI [59] was over 100 µM.

In the case of `COC(=O)/C=C1/OC(c2ccccc2)=CC1=O`, the TGI [1] is reported as 35.5 µM, the TGI [2] is reported as over 62.2 µM and the TGI [3] is reported as 21.8 µM. The TGI [4] was 31.4 µM, the TGI [5] was 34.9 µM and the TGI [6] was 44.6 µM. The TGI [7] was 19.4 µM, the TGI [8] was 47.9 µM and the TGI [9] was 32 µM. It also gave a TGI [10] of 40 µM, a TGI [11] of over 58 µM and a TGI [12] of 25.4 µM. It also gave a TGI [13] of 38.9 µM, a TGI [14] of 44.7 µM and a TGI [15] of 33.2 µM. For the same molecule, the TGI [16] was 43.5 µM, the TGI [17] was 23.2 µM and the TGI [18] was 51.3 µM. The TGI [19] was 51.5 µM, the TGI [20] was over 60.8 µM and the TGI [21] was 32.4 µM. For the same molecule, the TGI [22] was 36.9 µM, the TGI [23] was 35.8 µM and the TGI [24] was over 94.4 µM. It also gave a TGI [25] of 31.7 µM, a TGI [26] of 37.2 µM and a TGI [27] of 33.5 µM. It also gave a TGI [28] of over 61.2 µM, a TGI [29] of 52.8 µM and a TGI [30] of 17.3 µM. It also gave a TGI [31] of 33.9 µM, a TGI [32] of 32.3 µM and a TGI [33] of 32.1 µM. The TGI [34] was 29.5 µM, the TGI [35] was 44.7 µM and the TGI [36] was 65.9 µM. The TGI [37] was 34.1 µM, the TGI [38] was 39.3 µM and the TGI [39] was 49.9 µM. It also gave a TGI [40] of 27.9 µM, a TGI [41] of 32 µM and a TGI [42] of 39.4 µM. For the same molecule, the TGI [43] was 30 µM, the TGI [44] was 18.7 µM and the TGI [45] was 58.7 µM. For the same molecule, the TGI [46] was 33.9 µM, the TGI [47] was over 56 µM and the TGI [48] was 30.9 µM. It also gave a TGI [49] of 6.14 µM, a TGI [50] of 40.2 µM and a TGI [51] of 27.7 µM. It also gave a TGI [52] of over 82.9 µM, a TGI [53] of 39.8 µM and a TGI [54] of 42.9 µM. The TGI [55] was over 52.7 µM, the TGI [56] was 67.3 µM and the TGI [57] was 39 µM. It also gave a TGI [58] of 30.1 µM and a TGI [59] of 31.2 µM.

`CC(C)c1cc(C(C)C)c(P2(=O)CC3C(Cl)(Cl)C3(C)C2)c(C(C)C)c1` (stereo not given) gave a TGI [1] of 26.8 µM, a TGI [2] of 31 µM and a TGI [3] of 18.6 µM. It also gave a TGI [4] of 24.8 µM, a TGI [5] of 33.2 µM and a TGI [6] of over 44.1 µM. For the same molecule, the TGI [7] was 28.9 µM, the TGI [8] was 24.8 µM and the TGI [9] was 27.7 µM. For the same molecule, the TGI [10] was 21.3 µM, the TGI [11] was 31.9 µM and the TGI [12] was 19.5 µM. For the same molecule, the TGI [13] was 29.3 µM, the TGI [14] was 29 µM and the TGI [15] was 20.2 µM. The TGI [16] was 24.4 µM, the TGI [17] was over 25.5 µM and the TGI [18] was 22.4 µM. For the same molecule, the TGI [19] was 23.2 µM, the TGI [20] was 3.75 µM and the TGI [21] was 28.4 µM. The TGI [22] was 30.5 µM, the TGI [23] was 27.8 µM and the TGI [24] was 31.3 µM. It also gave a TGI [25] of 3.44 µM, a TGI [26] of 24.5 µM and a TGI [27] of 26.9 µM. It also gave a TGI [28] of 6.03 µM, a TGI [29] of 27.3 µM and a TGI [30] of over 23.1 µM. For the same molecule, the TGI [31] was 9.6 µM, the TGI [32] was 26.4 µM and the TGI [33] was 22 µM. The TGI [34] was 25 µM, the TGI [35] was 25.3 µM and the TGI [36] was 47.8 µM. It also gave a TGI [37] of 27.1 µM, a TGI [38] of 4 µM and a TGI [39] of 27.7 µM. It also gave a TGI [40] of 14.6 µM, a TGI [41] of 19.4 µM and a TGI [42] of 20.4 µM. The TGI [43] was 21.5 µM, the TGI [44] was 26.9 µM and the TGI [45] was 16 µM. The TGI [46] was 29.5 µM, the TGI [47] was 25.1 µM and the TGI [48] was 24.8 µM. It also gave a TGI [49] of 10.7 µM, a TGI [50] of 17.8 µM and a TGI [51] of 28.2 µM. The TGI [52] was 25.6 µM, the TGI [53] was 27.1 µM and the TGI [54] was 24.3 µM. For the same molecule, the TGI [55] was 20.9 µM, the TGI [56] was 34.3 µM and the TGI [57] was 24.6 µM. It also gave a TGI [58] of 25.1 µM and a TGI [59] of 11.8 µM.
